# Experiments:
# [1] = molecular target: T1, DesII (second DesII expression construct) (Streptomyces venezuelae, UniProt Q9ZGH1); assay: X-ray crystal structure, […] Å; assay type: binding; conditions: coordinates fourth iron of [Fe4S4] cluster in one monomer; pH 6.0 crystals
# T1 construct: pSJ5 vector, TrxA fusion, His8-tag and TEV site; N-terminal tag removed by TEV; [Fe4S4] cluster; loop D323-E337 disordered
# T1 sequence (Q9ZGH1 1-485): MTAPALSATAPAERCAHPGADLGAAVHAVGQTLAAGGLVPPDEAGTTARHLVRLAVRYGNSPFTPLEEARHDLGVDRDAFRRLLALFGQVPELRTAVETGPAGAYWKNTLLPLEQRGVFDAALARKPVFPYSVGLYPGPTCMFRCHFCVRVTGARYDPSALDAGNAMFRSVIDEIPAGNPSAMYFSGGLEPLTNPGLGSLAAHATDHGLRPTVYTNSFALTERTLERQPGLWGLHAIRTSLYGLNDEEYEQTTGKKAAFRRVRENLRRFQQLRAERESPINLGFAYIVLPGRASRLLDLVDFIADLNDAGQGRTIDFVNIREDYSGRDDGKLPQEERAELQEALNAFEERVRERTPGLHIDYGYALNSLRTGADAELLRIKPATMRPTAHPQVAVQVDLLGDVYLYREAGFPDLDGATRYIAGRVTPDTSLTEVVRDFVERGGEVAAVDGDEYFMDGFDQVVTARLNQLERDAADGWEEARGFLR
# DesII [2] = molecular target: T2, DesII (Streptomyces venezuelae, UniProt Q9ZGH1); assay: X-ray crystal structure, […] Å; assay type: binding
# T2 construct: C-terminal His6-tag kept; selenomethionine derivative used for phasing; [Fe4S4] cluster; N-terminal 7-9 residues disordered in crystal
# DesII [3] = molecular target: T2, DesII; assay: deaminase activity assay; assay type: biochemical; conditions: deamination
# DesII [4] = molecular target: T3, DesII (Streptomyces venezuelae, UniProt Q9ZGH1, E408Q); assay: deaminase activity assay; assay type: biochemical; conditions: deamination
# T3 construct: C-terminal His6-tag kept; selenomethionine derivative used for phasing; [Fe4S4] cluster; N-terminal 7-9 residues disordered in crystal
# T3 sequence (Q9ZGH1 whole entry E408Q, the tested form may be a part): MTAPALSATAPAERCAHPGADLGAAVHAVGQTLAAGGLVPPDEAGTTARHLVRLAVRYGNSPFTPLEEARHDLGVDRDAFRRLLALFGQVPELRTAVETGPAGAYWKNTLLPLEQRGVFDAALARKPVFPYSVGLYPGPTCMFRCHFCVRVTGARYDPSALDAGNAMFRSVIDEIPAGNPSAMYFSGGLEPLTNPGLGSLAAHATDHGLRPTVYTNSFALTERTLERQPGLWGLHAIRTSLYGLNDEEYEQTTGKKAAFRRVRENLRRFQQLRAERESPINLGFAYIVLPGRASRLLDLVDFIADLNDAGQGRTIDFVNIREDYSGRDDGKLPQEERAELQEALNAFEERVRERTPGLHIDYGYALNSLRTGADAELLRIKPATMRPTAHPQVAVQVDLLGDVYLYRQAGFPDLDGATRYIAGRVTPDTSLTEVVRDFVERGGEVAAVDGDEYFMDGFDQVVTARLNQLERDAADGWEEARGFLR
# DesII [5] = molecular target: T4, DesII (Streptomyces venezuelae, UniProt Q9ZGH1, E408A); assay: deaminase activity assay; assay type: biochemical; conditions: deamination
# T4 construct: C-terminal His6-tag kept; selenomethionine derivative used for phasing; [Fe4S4] cluster; N-terminal 7-9 residues disordered in crystal
# T4 sequence (Q9ZGH1 whole entry E408A, the tested form may be a part): as the sequence (Q9ZGH1 whole entry E408Q, the tested form may be a part) above, with Q408A counted along it
structure (smiles),measurement,setting,value
"CSCC[C@H](N)C(=O)O [Met, methionine]","X-ray crystal structure, 2.04 Å",[1],coordinated with a water molecule and the other with methionine
same,"X-ray crystal structure, 2.33 Å",DesII [2]; active sites of chains b and d,with methionine bound in the active sites of chains b and d
"C[S+](CC[C@H](N)C(=O)O)C[C@H]1O[C@@H](n2cnc3c(N)ncnc32)[C@H](O)[C@@H]1O (stereo partly drawn) [SAM, S-adenosyl-L-methionine]","X-ray crystal structure, 2.33 Å","DesII [2]; coordinated to [Fe4S4] cluster, chains a and c",A single molecule of SAM was found coordinated to the [Fe4S4] cluster in chains a
"Cc1cn([C@H]2C[C@H](O)[C@@H](COP(=O)(O)OP(=O)(O)O[C@H]3O[C@H](C)[C@@H](N)[C@H](O)[C@H]3O)O2)c(=O)[nH]c1=O [compound 1, TDP-4-amino-4,6-dideoxy-D-glucose]",deaminase activity assay,DesII [3],found to retain deaminase activity comparable to that of wildtype enzyme
same,deaminase activity assay,DesII [4],E408A and E408Q mutants were both constructed and found to retain deaminase activity
same,deaminase activity assay,DesII [5],E408A and E408Q mutants were both constructed and found to retain deaminase activity

# Reference: article PMC11434129, “Mechanistic Insights from the Crystal Structure and Computational Analysis of the Radical SAM Deaminase DesII” (Advanced Science, 2024)
